Patent US20180057447A1, “METHYL MENTHOL DERIVATIVE AND COOLING AGENT COMPOSITION CONTAINING SAME” (TAKASAGO INTERNATIONAL CORPORATION, priority 2015, published 2018)
Entries after “also recorded” stand apart in the source; their conditions may differ.

Assays:
[1] = Evaluation of cool feeling intensity (EC50, with reference to NPL 6); assay type: cell-based; conditions: index of the cool feeling intensity; read-out: EC50 (concentration at which a cool feeling is felt)
Description: The measurement of the cool feeling intensity was performed with reference to NPL 6. A concentration EC50 at which a cool feeling is felt is shown below as the index of the cool feeling intensity.

[2] = Sensory evaluation of aqueous solutions against comparative compounds; assay type: in vivo; conditions: for course / persistence of cool feeling intensity / start of cool feeling / taste and accompanying sensations (umami, salty, bitterness, numbness, fiery feeling): vs Comparative Compound 3; for cool feeling characteristic: rac-14a-38 vs Comparative Compound 1 (Evercool 180)
Description: Sensory Evaluation was performed by comparison with Comparative Compound 1 (Evercool 180), which has a strong cool feeling among conventionally known compounds, and has a similar structure. Each of Exemplary Compound rac-14a-38 and Comparative Compound 1 was prepared as a 2 ppm aqueous solution, and the evaluation was performed.
Sensory Evaluation was performed by comparison with Comparative Compound 2, which is conventionally known, and has a similar structure. Each of Exemplary Compound rac-14a-23 and Comparative Compound 2 was prepared as a 30 ppm aqueous solution, and the evaluation was performed.
Sensory Evaluation was performed by comparison with Comparative Compound 3, which is conventionally known, and has a similar structure. Each of Exemplary Compound rac-14a-34 and Comparative Compound 3 was prepared as a 30 ppm aqueous solution, and the evaluation was performed.
Sensory Evaluation was performed by comparison with Comparative Compound 3, which is conventionally known, and has a similar structure. Each of Exemplary Compound rac-14a-40 and Comparative Compound 3 was prepared as a 30 ppm aqueous solution, and the evaluation was performed.
Sensory Evaluation was performed by comparison with Comparative Compound 3 which is conventionally known. Each of Exemplary Compound rac-14a-46 and Comparative Compound 3 was prepared as a 30 ppm aqueous solution, and the evaluation was performed.
Sensory Evaluation was performed by comparison with Comparative Compound 3 which is conventionally known. Each of Exemplary Compound rac-14a-41 and Comparative Compound 3 was prepared as a 30 ppm aqueous solution, and the evaluation was performed.
Sensory Evaluation was performed by comparison with Comparative Compound 3 which is conventionally known. Each of Exemplary Compound rac-14a-47 and Comparative Compound 3 was prepared as a 30 ppm aqueous solution, and the evaluation was performed.

[3] = 30 ppm aqueous solution, vs Comparative Compound 2

CC(C)C1CCC(C)(C)CC12OCC(CO)O2 (racemic) [(1R,2S)-19a-1, (6-isopropyl-9,9-dimethyl-1,4-dioxaspiro[4.5]decan-2-yl)methanol]
EC50 [1]: 32400 nM

CCNC(=O)C1CC(C)(C)CCC1C(C)C (racemic) [rac-14a-2, N-ethyl-2-isopropyl-5,5-dimethylcyclohexanecarboxamide]
EC50 [1]: 2270 nM | melting point: 101 to 105 °C

CC(C)C1CCC(C)(C)CC1C(=O)NCCc1ccccn1 (racemic) [rac-14a-16, 2-isopropyl-5,5-dimethyl-N-(2-(pyridin-2-yl)ethyl)cyclohexanecarboxamide]
EC50 [1]: 130 nM | melting point: 104 to 107 °C

CCOC(=O)CNC(=O)C1CC(C)(C)CCC1C(C)C (racemic) [rac-14a-23, ethyl 2-(2-isopropyl-5,5-dimethylcyclohexanecarboxamide) acetate]
EC50 [1]: 490 nM | cool feeling intensity peak [2, 3]: comparable to that of Comparative Compound 2 | exhibition of a cool feeling (start) [2, 3]: later than Comparative Compound 2 | persistence of cool feeling [2, 3]: superior to that of Comparative Compound 2 | sharp cool feeling stimulation [2, 3]: stronger than that in Comparative Compound 2 | melting point: 104 to 107 °C

COc1ccc(NC(=O)C2CC(C)(C)CCC2C(C)C)cc1 (racemic) [rac-14a-34, 2-isopropyl-N-(4-methoxyphenyl)-5,5-dimethylcyclohexanecarboxamide]
EC50 [1]: 55 nM | course / persistence of cool feeling intensity ([2]; 30 ppm aqueous solution): increased over time | start of cool feeling ([2]; 30 ppm aqueous solution): later than Comparative Compound 3 | taste and accompanying sensations (umami, salty, bitterness, numbness, fiery feeling) ([2]; 30 ppm aqueous solution): comparable to that of Comparative Compound 3; also recorded: the secretion of saliva continued | melting point: 115 to 118 °C

CC(C)C1CCC(C)(C)CC1C(=O)Nc1ccc(CC#N)cc1 (racemic) [rac-14a-38, N-(4-(cyanomethyl)phenyl)-2-isopropyl-5,5-dimethylcyclohexanecarboxamide]
EC50 [1]: 240 nM | lapse until cool feeling exhibited after put in the mouth ([2]; 2 ppm aqueous solution): 1 minute to several minutes | persistence of cool feeling ([2]; 2 ppm aqueous solution): ≥ 30 min | cool feeling characteristic ([2]; 2 ppm aqueous solution): more natural than that of Comparative Compound 1; also recorded: only a cool feeling was felt; also recorded: sharper than that of Comparative Compound 1 | melting point: 121 to 122 °C

COc1ccc(NC(=O)C2CC(C)(C)CCC2C(C)C)c(C)c1 (racemic) [rac-14a-40, 2-isopropyl-N-(4-methoxy-2-methylphenyl)-5,5-dimethylcyclohexanecarboxamide]
EC50 [1]: 79 nM | taste and accompanying sensations (umami, salty, bitterness, numbness, fiery feeling) ([2]; 30 ppm aqueous solution): stronger and shaper than those of Comparative Compound 3; also recorded: Umami and a numbness feeling were exhibited simultaneously

COc1ccc(NC(=O)C2CC(C)(C)CCC2C(C)C)cc1O (racemic) [rac-14a-41, N-(3-hydroxy-4-methoxyphenyl)-2-isopropyl-5,5-dimethylcyclohexanecarboxamide]
EC50 [1]: 27 nM | course / persistence of cool feeling intensity ([2]; 30 ppm aqueous solution): also has persistence | start of cool feeling ([2]; 30 ppm aqueous solution): slightly earlier than Comparative Compound 3 | taste and accompanying sensations (umami, salty, bitterness, numbness, fiery feeling) ([2]; 30 ppm aqueous solution): Chemical-like bitterness was somewhat felt as a first taste; also recorded: accompanied by a clear feeling than a fiery feeling | melting point: 93 to 98 °C

COC(=O)c1cccc(NC(=O)C2CC(C)(C)CCC2C(C)C)c1 (racemic) [rac-14a-44, methyl 3-(2-isopropyl-5,5-dimethylcyclohexanecarboxamide) benzoate]
EC50 [1]: 5240 nM

COC(=O)c1ccc(NC(=O)C2CC(C)(C)CCC2C(C)C)cc1 (racemic) [rac-14a-45, methyl 4-(2-isopropyl-5,5-dimethylcyclohexanecarboxamide) benzoate]
EC50 [1]: 3530 nM

COC(=O)c1ccc(NC(=O)C2CC(C)(C)CCC2C(C)C)c(C)c1 (racemic) [rac-14a-46, methyl 4-(2-isopropyl-5,5-dimethylcyclohexanecarboxamide)-3-methylbenzoate]
EC50 [1]: 1500 nM | course / persistence of cool feeling intensity ([2]; 30 ppm aqueous solution): the cool feeling intensity persisted | start of cool feeling ([2]; 30 ppm aqueous solution): the start was late | taste and accompanying sensations (umami, salty, bitterness, numbness, fiery feeling) ([2]; 30 ppm aqueous solution): clear and light touch characteristic of an ester

CC(C)C1CCC(C)(C)CC1C(=O)Nc1ccc(CO)cc1 (racemic) [rac-14a-47, N-(4-(hydroxymethyl)phenyl)-2-isopropyl-5,5-dimethylcyclohexanecarboxamide]
EC50 [1]: 48 nM | course / persistence of cool feeling intensity ([2]; 30 ppm aqueous solution): also has persistence | start of cool feeling ([2]; 30 ppm aqueous solution): early start of a cool feeling | taste and accompanying sensations (umami, salty, bitterness, numbness, fiery feeling) ([2]; 30 ppm aqueous solution): stronger umami was felt than that in Comparative Compound 3; also recorded: accompanied by a fiery feeling (burning feeling) | melting point: 165 to 172 °C

CC(C)[C@@H]1CCC(C)(C)C[C@H]1OC(=O)[C@H](C)O (racemic) [rac-17a-2, (S)-(trans-2-isopropyl-5,5-dimethylcyclohexyl)2-hydroxypropanoate]
EC50 [1]: 64700 nM

CC(C)[C@@H]1CCC(C)(C)C[C@H]1C(=O)Nc1ccc(CC#N)cc1 [14a-38i, (−)-trans-N-(4-(cyanomethyl)phenyl)-2-isopropyl-5,5-dimethylcyclohexanecarboxamide]
EC50 [1]: 140 nM

CC(C)C1CCC(C)(C)CC1C(N)=O (stereo not shown) [14a-50, 2-isopropyl-5,5-dimethylcyclohexanecarboxamide]
EC50 [1]: 15500 nM | melting point: 141 to 145 °C

CC(C)[C@@H]1CCC(C)(C)C[C@H]1OC(=O)[C@H](C)O [(1R,2S)-17a-2, (S)-((1R,2S)-2-isopropyl-5,5-dimethylcyclohexyl)2-hydroxypropanoate]
EC50 [1]: 78500 nM

CC(C)[C@H]1CCC(C)(C)C[C@@H]1OC(=O)[C@H](C)O [(1S,2R)-17a-2, (S)-((1S,2R)-2-isopropyl-5,5-dimethylcyclohexyl)2-hydroxypropanoate]
EC50 [1]: 24500 nM

CC(C)[C@@H]1CC[C@@H](C)C[C@H]1C(=O)Nc1ccc(CC#N)cc1 [Evercool 180, reference compound]
cool feeling characteristic ([2]; 2 ppm aqueous solution): menthol-like characteristic
